Experimental data as given in patent publication US8142821B2, “Xanthohumol-enriched hop extract” (Flazan GmbH & Co. KG, priority 2007, dated 2012).
In brackets after ≈: the same amount, converted by molar mass.

Experiments:
[1] = tested on: K. rhizophila (formerly M. luteus) (ATCC 9341); test: Antimicrobial susceptibility, broth dilution; type: cell-based; conditions: Kocuria rhizophila, ATCC9341; lowest concentration required to kill
Description: (§1) The antibacterial effects of seven hops components against five different strains of bacteria involved in primary or secondary skin and soft tissue infections was evaluated, with broth dilution methods. […] Antimicrobial susceptibility testing was performed using a broth dilution method. Gentamicin or ampicillin was used as a control to verify the methodology. A stock solution (20 mg/ml) of the test substance (or vehicle control) was prepared in dimethyl sulfoxide. Serial dilution was done in microwell plates. Reinforced Clostridial Medium was used for P. acnes (ATCC 6919). Three hundreds […] of the test substance was added to the test tube containing P. acnes (10^5 CFU/ml) in 2.7 ml of cultures grown under anaerobic conditions. Mueller-Hinston Broth suitable for culturing S. epidermidis (ATCC 12228), K. rhizophila (formerly M. luteus) (ATCC 9341), and S. aureus (ATCC […]), and Brain Heart Infusion Broth suitable for culturing S. pyogenes (ATCC 14289) were used. A total of […] of the test substance was added to the test tube containing the other microorganisms (10^5 CFU/ml) in 0.9 ml of cultures grown under controlled conditions. […] Samples from those tubes that scored positive was plated onto an agar plate and incubated under controlled conditions.

P. acnes (ATCC 6919) = test: Antimicrobial susceptibility, broth dilution; type: cell-based; conditions: Cutibacterium acnes, ATCC6919; lowest concentration required to kill
Description: as §1

S. aureus (ATCC 6538P) = test: Antimicrobial susceptibility, broth dilution; type: cell-based; conditions: Staphylococcus aureus, ATCC6538P; lowest concentration required to kill
Description: as §1

[2] = tested on: S. epidermidis (ATCC 12228); test: Antimicrobial susceptibility, broth dilution; type: cell-based; conditions: Staphylococcus epidermidis, ATCC12228; lowest concentration required to kill
Description: as §1

S. pyogenes (ATCC 14289) = test: Antimicrobial susceptibility, broth dilution; type: cell-based; conditions: Streptococcus pyogenes, ATCC14289; lowest concentration required to kill
Description: as §1

[3] = ORAC-Total (ORAClipo + ORAChydro); conditions: among hop components
Description: (§2) In the present work, the ORAC value is expressed as the sum of values of both the water-soluble and fat-soluble parts. Green tea catechins (Polyphenon 60) were used as the control with the highest ORAC value among edible plants. Vitamin C and vitamin E were used as controls for water- and fat-soluble molecules, respectively. Both hydrophilic and lipophilic oxygen radical absorbance capacity (ORAC) assays were carried out at Brunswick Laboratory (Wareham, Mass.) based on the modified ORACfl method reported by Ou et al. (2001 J. Agric. Food Chem. 49: 4619-4626, 2002 J. Agr. Food Chem. 50: 3122-3128). Trolox, a water-soluble vitamin E analog, was used as the calibration standard. The data are expressed as mmole of Trolox equivalents per gram (mmol TE/g). […] Hydroxyl radical ORAC (HOR-AC) is expressed as mmole caffeic acid equivalent per gram (mmol CAE/g). […] The peroxyl nitrite ORAC (NORAC) result is expressed as mmol TE/g. Alpha-tocopherol (vitamin E) was used as the calibration standard, and the singlet oxygen absorbance capacity (SOAC) result is expressed as mmole a-tocopherol equivalent (mmol VtE) per gram (Aubry et al. 1989 J. Org. Chem. 54: 726-728). […] Radical-scavenging activity was measured by the change in absorbance at 517 nm with the DPPH result expressed as mmol TE/g. […] The FRAP result is expressed as mmol TE/g (Ou et al. J. Agric. Food Chem. 49: 4619-4626). […]

SOD antioxidant assay = conditions: among hop components
[4] = FRAP, ferric reducing antioxidative power; conditions: among hop components
Description: as §2, with “[table] […] The SOAC scores are not included in this figure;” for “In the present work, the”, “values used are” for “value is expressed as”, “lipophilic and hydrophilic results. For each assay category, scaling was made logarithmic so that” for “values of both”, “plot on” for “water-soluble and fat-soluble parts. Green tea catechins (Polyphenon 60) were used as”, “chart resembles” for “control with”, “associated rating. […] The larger the spatial area, the higher the overall antioxidative capacity. […]” for “highest ORAC value among edible plants. Vitamin C and vitamin E were used as controls for water- and fat-soluble molecules, respectively.”

[5] = HORAC, hydroxyl radical ORAC; conditions: among hop components
Description: as §2, with “[table] […] The SOAC scores are not included in this figure;” for “In the present work, the”, “values used are” for “value is expressed as”, “lipophilic and hydrophilic results. For each assay category, scaling was made logarithmic so that” for “values of both”, “plot on” for “water-soluble and fat-soluble parts. Green tea catechins (Polyphenon 60) were used as”, “chart resembles” for “control with”, “associated rating. […] The larger the spatial area, the higher the overall antioxidative capacity. […]” for “highest ORAC value among edible plants. Vitamin C and vitamin E were used as controls for water- and fat-soluble molecules, respectively.”

In the case of `COc1cc(O)c(CC=C(C)C)c(O)c1C(=O)/C=C/c1ccc(O)cc1` [Xanthohumol (7), Xanthohumol], the MBC [1] is reported as 10 µg/mL (≈ 28.2 µM), the MBC (P. acnes (ATCC 6919)) is reported as 3 µg/mL (≈ 8.46 µM) and the MBC (S. aureus (ATCC 6538P)) is reported as 100 µg/mL (≈ 282 µM). For the same compound, the MBC [2] was 10 µg/mL (≈ 28.2 µM), the MBC (S. pyogenes (ATCC 14289)) was 3 µg/mL (≈ 8.46 µM) and the “rank of quenching activity against peroxyl radical (ORAC-total), FIG. 2” value [3] was “highest quenching activity”. For the same compound, the “rank of quenching activity against superoxide (SOD), FIG. 2” value (SOD antioxidant assay) was “highest quenching activity”, the “rank of quenching activity against ferric ion (FRAP), FIG. 2” value [4] was “highest quenching activity” and the “rank of quenching activity against hydroxyl radical (HORAC), FIG. 2” value [5] was “highest quenching activity”.
